From ChEMBL document CHEMBL4387706, “Discovery of Novel Spiroindoline Derivatives as Selective Tankyrase Inhibitors” (J Med Chem, 2019)
pIC50: −log10 of the molar value.

Tests used:
[1] = Protein binding in mouse serum assessed as unbound fraction at 1 uM measured after 24 hrs by LC-MS/MS analysis; assay type: ADME, cell-free
in vitro [2] = settings: mouse, liver microsomes
Description: Stability in mouse liver microsomes assessed as parent compound remaining at 1 uM measured after 30 mins in presence of NADPH by LC-MS/MS analysis

[3] = Volume of distribution at steady state in Sprague-Dawley rat at 1 mg/kg, iv; assay type: ADME, organism-based; settings: in vivo, read-out: Vdss
[4] = AUC (infinity) in Sprague-Dawley rat at 1 mg/kg, iv; assay type: ADME, organism-based; set-up: dose 1 mg/kg, route intravenous, time infinity; settings: in vivo
[5] = biological target: T1, Protein mono-ADP-ribosyltransferase PARP10 (Homo sapiens, UniProt Q53GL7); experiment: Inhibition of human recombinant N-terminal TEV-cleavgae site-fused-FLAG/Polyhis-tagged PARP10 […] expressed in Escherichia coli assessed as reduction in auto-PARylation using histone as substrate measured after 45 mins in presence of biotinylated-NAD+ by ELISA
T1 sequence (Q53GL7 whole entry): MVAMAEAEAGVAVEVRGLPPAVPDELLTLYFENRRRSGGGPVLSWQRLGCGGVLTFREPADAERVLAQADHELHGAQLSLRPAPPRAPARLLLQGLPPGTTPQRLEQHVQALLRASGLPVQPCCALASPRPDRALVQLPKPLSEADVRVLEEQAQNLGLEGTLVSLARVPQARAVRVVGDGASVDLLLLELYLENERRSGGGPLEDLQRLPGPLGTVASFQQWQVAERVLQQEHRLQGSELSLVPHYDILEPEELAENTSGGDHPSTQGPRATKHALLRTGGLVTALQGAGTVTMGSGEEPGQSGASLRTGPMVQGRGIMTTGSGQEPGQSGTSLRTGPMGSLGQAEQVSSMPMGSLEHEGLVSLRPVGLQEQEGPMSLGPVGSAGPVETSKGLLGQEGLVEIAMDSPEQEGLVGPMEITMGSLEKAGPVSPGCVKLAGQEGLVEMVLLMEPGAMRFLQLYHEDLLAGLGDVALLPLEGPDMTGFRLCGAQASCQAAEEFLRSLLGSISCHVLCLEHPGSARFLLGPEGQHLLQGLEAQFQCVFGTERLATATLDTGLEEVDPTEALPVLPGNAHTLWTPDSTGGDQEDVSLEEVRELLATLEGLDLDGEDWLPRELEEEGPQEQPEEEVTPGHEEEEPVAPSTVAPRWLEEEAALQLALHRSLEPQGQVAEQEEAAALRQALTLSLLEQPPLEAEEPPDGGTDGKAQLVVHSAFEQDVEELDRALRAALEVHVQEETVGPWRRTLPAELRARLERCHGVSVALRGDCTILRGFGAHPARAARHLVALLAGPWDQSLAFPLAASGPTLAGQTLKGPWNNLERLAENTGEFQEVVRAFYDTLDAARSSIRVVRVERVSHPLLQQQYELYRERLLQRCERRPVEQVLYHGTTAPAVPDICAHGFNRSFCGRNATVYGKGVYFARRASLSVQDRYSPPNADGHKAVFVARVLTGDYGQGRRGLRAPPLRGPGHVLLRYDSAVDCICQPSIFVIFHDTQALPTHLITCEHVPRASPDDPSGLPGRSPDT

[6] = Total clearance in Sprague-Dawley rat at 1 mg/kg, iv; assay type: ADME, organism-based; settings: in vivo
[7] = biological target: Poly [ADP-ribose] polymerase 1 (Homo sapiens, UniProt P09874)
Sequence of Poly [ADP-ribose] polymerase 1 (P09874 whole entry): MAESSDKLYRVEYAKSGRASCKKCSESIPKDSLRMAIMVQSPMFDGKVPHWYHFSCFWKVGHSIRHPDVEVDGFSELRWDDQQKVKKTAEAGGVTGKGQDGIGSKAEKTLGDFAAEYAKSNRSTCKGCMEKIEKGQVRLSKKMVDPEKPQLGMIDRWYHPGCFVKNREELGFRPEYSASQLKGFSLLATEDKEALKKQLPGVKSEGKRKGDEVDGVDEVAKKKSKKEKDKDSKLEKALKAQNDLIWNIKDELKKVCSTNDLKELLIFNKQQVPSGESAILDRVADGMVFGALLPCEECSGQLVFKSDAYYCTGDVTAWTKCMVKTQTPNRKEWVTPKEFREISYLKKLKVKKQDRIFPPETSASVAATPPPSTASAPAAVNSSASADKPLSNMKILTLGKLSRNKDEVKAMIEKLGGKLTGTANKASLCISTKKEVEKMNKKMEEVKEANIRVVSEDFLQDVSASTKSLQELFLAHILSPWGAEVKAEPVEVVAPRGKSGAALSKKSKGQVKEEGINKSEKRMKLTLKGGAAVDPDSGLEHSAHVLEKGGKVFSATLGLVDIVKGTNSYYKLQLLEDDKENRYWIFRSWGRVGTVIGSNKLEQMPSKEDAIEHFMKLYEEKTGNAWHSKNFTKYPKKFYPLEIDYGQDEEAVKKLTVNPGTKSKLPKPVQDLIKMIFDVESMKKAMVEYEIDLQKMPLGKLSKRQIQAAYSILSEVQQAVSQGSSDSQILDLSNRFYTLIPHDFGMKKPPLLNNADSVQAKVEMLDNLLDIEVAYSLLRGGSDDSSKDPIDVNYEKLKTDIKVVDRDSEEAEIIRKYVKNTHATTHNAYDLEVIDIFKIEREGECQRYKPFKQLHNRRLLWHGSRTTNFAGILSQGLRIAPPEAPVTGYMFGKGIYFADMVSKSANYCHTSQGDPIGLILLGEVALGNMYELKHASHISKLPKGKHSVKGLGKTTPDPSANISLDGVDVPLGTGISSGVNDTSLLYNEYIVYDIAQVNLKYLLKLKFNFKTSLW
Description: Inhibition of recombinant human PARP1 expressed in Escherichia coli assessed as reduction in auto-PARylation using histone as substrate measured after 45 mins in presence of biotinylated-NAD+ by ELISA

[8] = AUC (infinity) in Sprague-Dawley rat at 3 mg/kg, po; assay type: ADME, organism-based; set-up: dose 3 mg/kg, time infinity, route oral; settings: in vivo
[9] = Cmax in Sprague-Dawley rat at 3 mg/kg, po; assay type: ADME, organism-based; set-up: dose 3 mg/kg, route oral; settings: in vivo
[10] = Initial plasma concentration in Sprague-Dawley rat at 1 mg/kg, iv; assay type: ADME, organism-based
[11] = biological target: Poly [ADP-ribose] polymerase 2 (Homo sapiens, UniProt Q9UGN5); experiment: Inhibition of human recombinant N-terminal GST-tagged PARP2 (2 to 583 residues) expressed in baculovirus infected Sf9 cells assessed as reduction in auto-PARylation using histone as substrate measured after 45 mins in presence of biotinylated-NAD+ by ELISA
Sequence of Poly [ADP-ribose] polymerase 2 (Q9UGN5 whole entry, the tested form may be a part): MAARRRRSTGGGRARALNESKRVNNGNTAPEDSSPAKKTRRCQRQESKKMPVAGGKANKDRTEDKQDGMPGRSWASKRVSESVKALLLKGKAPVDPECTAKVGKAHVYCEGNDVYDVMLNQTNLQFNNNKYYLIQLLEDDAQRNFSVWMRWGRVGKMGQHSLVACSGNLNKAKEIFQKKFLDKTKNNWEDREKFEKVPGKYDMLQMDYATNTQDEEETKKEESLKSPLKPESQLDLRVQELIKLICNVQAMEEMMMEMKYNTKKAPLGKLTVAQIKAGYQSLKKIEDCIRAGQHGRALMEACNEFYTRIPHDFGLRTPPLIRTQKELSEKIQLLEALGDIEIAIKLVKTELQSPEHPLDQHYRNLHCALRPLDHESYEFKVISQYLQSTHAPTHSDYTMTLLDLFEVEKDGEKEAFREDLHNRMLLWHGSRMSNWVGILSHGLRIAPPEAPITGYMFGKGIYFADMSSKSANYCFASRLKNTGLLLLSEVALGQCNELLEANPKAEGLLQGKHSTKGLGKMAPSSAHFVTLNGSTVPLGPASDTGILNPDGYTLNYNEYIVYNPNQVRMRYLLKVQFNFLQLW

[12] = Tmax in Sprague-Dawley rat at 3 mg/kg, po; assay type: ADME, organism-based; settings: in vivo
[13] = Half life in Sprague-Dawley rat at 1 mg/kg, iv; assay type: ADME, organism-based; settings: in vivo
COLO 320DM = experiment: cells; settings: Homo sapiens, 96 h
Description: Antiproliferative activity against human COLO320DM cells assessed as inhibition of cell growth measured after 4 days by CellTiter-Glo assay

in vitro [14] = settings: human, liver microsomes
Description: Stability in human liver microsomes assessed as parent compound remaining at 1 uM measured after 30 mins in presence of NADPH by LC-MS/MS analysis

[15] = Oral bioavailability in Sprague-Dawley rat at 3 mg/kg; assay type: ADME, organism-based; settings: in vivo
[16] = Protein binding in human serum assessed as unbound fraction at 1 uM measured after 24 hrs by LC-MS/MS analysis; assay type: ADME, cell-free
[17] = biological target: 5-hydroxytryptamine receptor 1A (Homo sapiens) (UniProt P08908); experiment: Displacement of [3H]8-OH-DPAT from full-length recombinant human 5HT1A receptor expressed in CHOK1 cells at 10 uM measured after 60 mins by scintillation counting method relative to control; assay type: cell-based
[18] = biological target: Endothelin-1 receptor (Homo sapiens) (UniProt P25101); experiment: Displacement of [125I]Endothelin1 from full-length recombinant human ETA receptor expressed in CHOK1 cells at 10 uM measured after 120 mins by scintillation counting method relative to control; assay type: cell-based
[19] = biological target: Glucocorticoid receptor (Homo sapiens) (UniProt P04150); experiment: Displacement of [3H]dexamethasone from full-length recombinant human glucocorticoid receptor expressed in insect cells at 10 uM measured after 24 hrs by scintillation counting method relative to control
Sequence of Glucocorticoid receptor (Homo sapiens) (P04150 whole entry): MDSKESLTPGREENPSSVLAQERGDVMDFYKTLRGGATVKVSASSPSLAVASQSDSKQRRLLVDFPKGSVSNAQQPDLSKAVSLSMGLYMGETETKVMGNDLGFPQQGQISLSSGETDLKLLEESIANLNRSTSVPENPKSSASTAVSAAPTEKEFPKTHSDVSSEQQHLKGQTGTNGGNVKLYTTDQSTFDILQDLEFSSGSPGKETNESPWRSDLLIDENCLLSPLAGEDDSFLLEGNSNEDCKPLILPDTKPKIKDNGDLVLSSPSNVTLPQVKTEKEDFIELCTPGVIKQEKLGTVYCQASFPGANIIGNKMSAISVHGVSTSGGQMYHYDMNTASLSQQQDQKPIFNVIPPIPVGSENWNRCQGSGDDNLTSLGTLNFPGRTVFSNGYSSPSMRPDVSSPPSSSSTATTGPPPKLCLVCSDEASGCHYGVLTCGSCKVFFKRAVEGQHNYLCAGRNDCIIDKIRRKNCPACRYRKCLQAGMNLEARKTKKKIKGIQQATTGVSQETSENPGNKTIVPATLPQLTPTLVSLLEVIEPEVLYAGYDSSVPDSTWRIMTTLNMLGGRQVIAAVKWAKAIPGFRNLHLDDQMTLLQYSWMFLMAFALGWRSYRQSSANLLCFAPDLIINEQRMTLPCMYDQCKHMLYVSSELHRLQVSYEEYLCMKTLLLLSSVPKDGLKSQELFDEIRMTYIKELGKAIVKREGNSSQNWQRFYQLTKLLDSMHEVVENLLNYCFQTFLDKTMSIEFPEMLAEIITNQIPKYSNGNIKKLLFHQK

[20] = biological target: 3',5'-cyclic-AMP phosphodiesterase 4D (Homo sapiens) (UniProt Q08499); experiment: Inhibition of full-length recombinant human PDE4D2 expressed in Sf9 insect cells at 10 uM using FAM-cAMP as substrate preincubated for 15 mins followed by substrate addition and measured after 15 mins by spectrofluorimetric method relative to control
Sequence of 3',5'-cyclic-AMP phosphodiesterase 4D (Homo sapiens) (Q08499 whole entry): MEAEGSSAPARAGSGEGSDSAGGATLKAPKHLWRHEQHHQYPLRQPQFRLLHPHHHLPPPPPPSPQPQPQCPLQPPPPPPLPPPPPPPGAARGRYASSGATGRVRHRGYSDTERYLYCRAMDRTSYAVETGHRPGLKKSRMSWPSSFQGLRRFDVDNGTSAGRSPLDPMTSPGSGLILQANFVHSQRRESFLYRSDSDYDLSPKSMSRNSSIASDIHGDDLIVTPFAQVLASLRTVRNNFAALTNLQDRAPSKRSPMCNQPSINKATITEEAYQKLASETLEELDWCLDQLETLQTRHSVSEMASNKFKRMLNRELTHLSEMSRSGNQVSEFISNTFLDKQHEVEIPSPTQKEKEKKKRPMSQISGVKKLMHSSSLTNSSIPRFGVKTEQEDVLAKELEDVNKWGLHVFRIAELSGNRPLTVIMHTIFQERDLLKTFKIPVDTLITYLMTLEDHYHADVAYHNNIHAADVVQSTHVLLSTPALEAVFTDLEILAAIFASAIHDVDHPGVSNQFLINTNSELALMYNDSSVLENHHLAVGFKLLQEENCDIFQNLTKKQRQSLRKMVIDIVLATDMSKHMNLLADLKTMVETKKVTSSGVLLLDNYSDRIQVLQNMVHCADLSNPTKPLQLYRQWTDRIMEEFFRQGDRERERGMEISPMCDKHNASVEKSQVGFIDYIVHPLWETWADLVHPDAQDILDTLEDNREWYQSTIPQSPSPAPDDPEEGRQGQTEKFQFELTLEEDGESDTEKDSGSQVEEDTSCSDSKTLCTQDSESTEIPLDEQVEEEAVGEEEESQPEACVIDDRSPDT

[21] = biological target: Mu-type opioid receptor (Homo sapiens) (UniProt P35372); experiment: Displacement of [3H]diprenorphine from full-length recombinant human MOR expressed in CHOK1 cells at 10 uM measured after 60 mins by scintillation counting method relative to control; assay type: cell-based
Sequence of Mu-type opioid receptor (Homo sapiens) (P35372 whole entry): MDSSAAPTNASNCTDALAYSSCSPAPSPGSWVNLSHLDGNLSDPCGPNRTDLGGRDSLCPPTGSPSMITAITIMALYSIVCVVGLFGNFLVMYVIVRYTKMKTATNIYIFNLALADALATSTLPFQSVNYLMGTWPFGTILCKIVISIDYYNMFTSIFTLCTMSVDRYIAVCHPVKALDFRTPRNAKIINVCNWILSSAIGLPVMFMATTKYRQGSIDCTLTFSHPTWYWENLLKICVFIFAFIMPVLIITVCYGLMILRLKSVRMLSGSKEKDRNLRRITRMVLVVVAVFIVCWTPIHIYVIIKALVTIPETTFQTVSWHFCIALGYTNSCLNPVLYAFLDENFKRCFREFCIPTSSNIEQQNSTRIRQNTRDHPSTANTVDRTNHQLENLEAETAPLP

[22] = biological target: cGMP-inhibited 3',5'-cyclic phosphodiesterase 3A (Homo sapiens) (UniProt Q14432); experiment: Inhibition of full-length recombinant human PDE3A at 10 uM using FAM-cAMP as substrate measured after 30 mins by spectrofluorimetric method relative to control
Sequence of cGMP-inhibited 3',5'-cyclic phosphodiesterase 3A (Homo sapiens) (Q14432 whole entry): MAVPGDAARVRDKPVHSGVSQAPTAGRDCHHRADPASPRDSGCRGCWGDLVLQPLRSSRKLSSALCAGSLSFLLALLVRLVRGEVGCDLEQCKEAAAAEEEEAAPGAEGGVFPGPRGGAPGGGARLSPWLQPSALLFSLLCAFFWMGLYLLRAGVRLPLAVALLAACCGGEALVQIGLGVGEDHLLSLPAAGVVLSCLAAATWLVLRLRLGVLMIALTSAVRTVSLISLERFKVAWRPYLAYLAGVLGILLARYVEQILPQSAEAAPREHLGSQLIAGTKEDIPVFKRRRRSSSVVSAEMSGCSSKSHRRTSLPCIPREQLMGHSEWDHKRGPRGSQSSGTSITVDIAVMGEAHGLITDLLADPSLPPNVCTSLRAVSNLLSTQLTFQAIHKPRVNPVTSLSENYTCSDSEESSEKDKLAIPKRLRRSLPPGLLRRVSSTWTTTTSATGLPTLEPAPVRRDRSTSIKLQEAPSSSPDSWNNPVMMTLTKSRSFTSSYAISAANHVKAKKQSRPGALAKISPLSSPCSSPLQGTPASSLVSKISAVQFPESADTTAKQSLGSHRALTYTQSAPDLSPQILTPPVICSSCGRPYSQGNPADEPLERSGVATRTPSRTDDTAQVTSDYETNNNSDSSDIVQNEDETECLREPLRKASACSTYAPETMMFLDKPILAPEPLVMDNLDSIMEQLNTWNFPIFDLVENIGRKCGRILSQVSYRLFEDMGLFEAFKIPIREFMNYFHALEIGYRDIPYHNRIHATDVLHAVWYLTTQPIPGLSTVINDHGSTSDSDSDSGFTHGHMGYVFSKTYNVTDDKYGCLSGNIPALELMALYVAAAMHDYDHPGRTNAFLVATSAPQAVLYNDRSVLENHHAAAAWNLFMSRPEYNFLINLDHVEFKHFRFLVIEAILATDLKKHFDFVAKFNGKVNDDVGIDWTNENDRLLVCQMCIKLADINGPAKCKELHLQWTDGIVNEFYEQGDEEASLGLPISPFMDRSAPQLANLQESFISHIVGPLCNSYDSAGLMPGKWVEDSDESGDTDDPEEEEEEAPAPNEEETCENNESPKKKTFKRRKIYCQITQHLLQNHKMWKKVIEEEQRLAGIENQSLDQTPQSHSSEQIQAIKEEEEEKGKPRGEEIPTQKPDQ

[23] = biological target: Glutamate NMDA receptor (Rattus norvegicus) (UniProt P35439+Q00959+Q00960+Q00961+Q62645+Q8VHN2+Q9R1M7); experiment: Displacement of [3H]CGP-39653 from NMDA receptor in Wistar rat cerebral cortex at 10 uM measured after 20 mins by scintillation counting method relative to control

SMILES: COc1ccccc1N1CCN(c2nc3c(c(=O)[nH]2)CCCC3)CC1
- fraction unbound at 24 h, 1 µM [1]: 0.029
- remaining at 0.5 h, 1 µM (in vitro [2]): 0%
- Vd [3]: 58.9 L/kg
- AUC(0-inf) [4]: 0.72 µM·h
- pIC50 [5]: 4.99
- clearance [6]: 68 mL/min/kg
- pIC50 [7]: 4.00 to 4.70
- AUC(0-inf) [8]: 1.27 µM·h
- Cmax [9]: 120 nM
- C0 [10]: 1000 nM
- pIC50 [11]: 5.65
- Tmax [12]: 0.5 h
- half-life [13]: 13 h
- GI50 (COLO 320DM): 3.2 µM
- remaining at 0.5 h, 1 µM (in vitro [14]): 84.1%
- bioavailability [15]: 59.7%
- fraction unbound at 24 h, 1 µM [16]: 0.043

SMILES: O=c1[nH]c(N2CCC3(CC2)CN(CCO)c2cc(F)cc(F)c23)nc2c1CCCC2
- fraction unbound at 24 h, 1 µM [1]: 0.015
- remaining at 0.5 h, 1 µM (in vitro [2]): 18.3%
- inhibition [17]: > 20%
- Vd [3]: 0.59 L/kg
- AUC(0-inf) [4]: 4.42 µM·h
- pIC50 [5]: 4.70
- inhibition [18]: > 20%
- clearance [6]: 9 mL/min/kg
- pIC50 [7]: 4.00 to 4.70
- inhibition [19]: > 20%
- AUC(0-inf) [8]: 7.92 µM·h
- Cmax [9]: 2280 nM
- C0 [10]: 9840 nM
- pIC50 [11]: 5.57
- Tmax [12]: 0.25 h
- half-life [13]: 3.5 h
- inhibition [20]: > 20%
- GI50 (COLO 320DM): 1.6 µM
- inhibition [21]: > 20%
- inhibition [22]: > 20%
- remaining at 0.5 h, 1 µM (in vitro [14]): 5.9%
- bioavailability [15]: 59.8%
- fraction unbound at 24 h, 1 µM [16]: 0.004
- inhibition [23]: > 20%
